Experimental data taken from ChEMBL document CHEMBL1201862, “PubChem BioAssay data set” (2004).
Activity calls are given as the source filed them.

Key:
Mucolipin-3 = Mucolipin-3 (Homo sapiens, UniProt Q8TDD5); assay: Dose response cell-based high-throughput screening assay for agonists of the transient receptor potential channel ML3 (TRPML3). [Related pubchem assays: 1526, 1424, 1448 ]; type: functional
Ion channel NompC = Ion channel NompC (Danio rerio, UniProt Q7T1G6); assay: Fluorescence counterscreen assay for TRPML3 agonists: dose response cell-based high-throughput screening assay to identify agonists of the transient receptor potential channel N1 (TRPN1). [Related pubchem assays: 1526, 1424, 1448 ]; type: functional
Ion channel NompC, sequence (Q7T1G6 whole entry): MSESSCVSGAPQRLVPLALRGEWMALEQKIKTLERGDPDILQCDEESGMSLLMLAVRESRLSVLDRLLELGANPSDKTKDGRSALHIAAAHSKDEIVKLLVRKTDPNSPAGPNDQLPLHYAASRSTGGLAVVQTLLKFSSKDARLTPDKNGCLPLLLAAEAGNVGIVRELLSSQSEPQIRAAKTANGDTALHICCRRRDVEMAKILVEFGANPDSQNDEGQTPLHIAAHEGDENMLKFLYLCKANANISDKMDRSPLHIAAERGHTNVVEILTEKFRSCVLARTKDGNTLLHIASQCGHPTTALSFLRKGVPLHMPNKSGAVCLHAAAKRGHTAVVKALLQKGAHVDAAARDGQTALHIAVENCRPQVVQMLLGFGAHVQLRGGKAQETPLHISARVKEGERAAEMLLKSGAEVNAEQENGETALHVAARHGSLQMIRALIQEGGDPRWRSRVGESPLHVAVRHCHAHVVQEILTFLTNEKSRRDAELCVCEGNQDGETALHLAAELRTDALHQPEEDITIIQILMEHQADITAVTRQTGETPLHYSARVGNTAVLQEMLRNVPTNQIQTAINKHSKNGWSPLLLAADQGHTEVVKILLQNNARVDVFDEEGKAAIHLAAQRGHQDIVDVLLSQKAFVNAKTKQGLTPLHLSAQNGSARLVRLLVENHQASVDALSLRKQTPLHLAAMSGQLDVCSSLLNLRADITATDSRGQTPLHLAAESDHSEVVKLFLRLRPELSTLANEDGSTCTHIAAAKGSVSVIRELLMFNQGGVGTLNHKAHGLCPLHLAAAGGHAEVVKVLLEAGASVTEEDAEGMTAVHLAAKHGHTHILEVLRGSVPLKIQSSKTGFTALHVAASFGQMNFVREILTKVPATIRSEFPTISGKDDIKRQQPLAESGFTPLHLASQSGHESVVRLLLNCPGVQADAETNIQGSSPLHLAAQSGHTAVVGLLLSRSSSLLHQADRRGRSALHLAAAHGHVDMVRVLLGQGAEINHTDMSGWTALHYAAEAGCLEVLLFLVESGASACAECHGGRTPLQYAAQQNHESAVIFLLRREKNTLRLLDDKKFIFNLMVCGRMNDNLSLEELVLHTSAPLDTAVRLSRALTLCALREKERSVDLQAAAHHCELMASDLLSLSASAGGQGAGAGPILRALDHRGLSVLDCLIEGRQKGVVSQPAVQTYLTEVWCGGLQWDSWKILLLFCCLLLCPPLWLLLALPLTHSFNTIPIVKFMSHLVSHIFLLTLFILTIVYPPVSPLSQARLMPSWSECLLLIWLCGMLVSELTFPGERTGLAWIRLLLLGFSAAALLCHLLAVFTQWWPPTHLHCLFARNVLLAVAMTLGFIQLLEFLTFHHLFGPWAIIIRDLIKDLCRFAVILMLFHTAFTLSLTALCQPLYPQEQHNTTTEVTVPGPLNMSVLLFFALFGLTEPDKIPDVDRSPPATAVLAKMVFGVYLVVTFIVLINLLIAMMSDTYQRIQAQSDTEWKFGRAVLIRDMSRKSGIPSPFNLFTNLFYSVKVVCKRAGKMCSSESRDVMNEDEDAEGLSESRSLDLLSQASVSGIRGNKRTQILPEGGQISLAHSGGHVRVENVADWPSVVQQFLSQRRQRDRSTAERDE

[1] = target: T1, Heat shock factor protein 1 (Mus musculus, UniProt P38532); assay: HSF1 potentiators in luciferase reporter cells, confirmation, cell-based, NIH3T3, luminescence, dose retest (AID 435004); type: functional;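 note: stress induced by proteasome inhibitor MG132 added 30 min after compound; luciferase reporter driven by HSF1 response element in NIH3T3 cells; actives raise luminescence as potentiators of the MG132 stress response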
T1 sequence (P38532 whole entry): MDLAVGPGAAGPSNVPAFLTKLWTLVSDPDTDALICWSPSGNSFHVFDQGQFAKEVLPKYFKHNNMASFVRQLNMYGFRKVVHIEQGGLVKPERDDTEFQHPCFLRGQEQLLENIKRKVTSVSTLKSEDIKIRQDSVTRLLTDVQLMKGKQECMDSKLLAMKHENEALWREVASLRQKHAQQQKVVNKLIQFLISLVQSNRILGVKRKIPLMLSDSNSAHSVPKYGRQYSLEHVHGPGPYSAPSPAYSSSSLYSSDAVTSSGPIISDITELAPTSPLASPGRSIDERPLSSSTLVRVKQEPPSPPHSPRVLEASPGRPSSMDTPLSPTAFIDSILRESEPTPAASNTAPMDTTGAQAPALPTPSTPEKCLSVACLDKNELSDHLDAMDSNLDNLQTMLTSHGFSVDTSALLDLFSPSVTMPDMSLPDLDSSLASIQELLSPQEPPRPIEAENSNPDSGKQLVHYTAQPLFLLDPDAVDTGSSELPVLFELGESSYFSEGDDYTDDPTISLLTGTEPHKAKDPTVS

Tumor necrosis factor = Tumor necrosis factor (Homo sapiens, UniProt P01375); assay: TNFa-triggered NF-kB activation inhibitors, SAR follow-up, cell-based, revised (AID 2337); type: functional
Tumor necrosis factor, sequence (P01375 whole entry, the tested form may be a part): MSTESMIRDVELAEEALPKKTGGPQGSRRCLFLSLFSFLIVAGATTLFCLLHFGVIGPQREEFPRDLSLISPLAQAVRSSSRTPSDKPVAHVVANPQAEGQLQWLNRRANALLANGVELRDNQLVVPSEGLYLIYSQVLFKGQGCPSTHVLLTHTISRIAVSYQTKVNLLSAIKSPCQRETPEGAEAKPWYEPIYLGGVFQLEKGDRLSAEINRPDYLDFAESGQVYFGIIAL

[2] = target: T2, Nucleotide-binding oligomerization domain-containing protein 1 (Homo sapiens, UniProt Q9Y239); assay: NOD1 signaling inhibitors, SAR follow-up, revised (AID 2333); type: functional
T2 sequence (Q9Y239 whole entry): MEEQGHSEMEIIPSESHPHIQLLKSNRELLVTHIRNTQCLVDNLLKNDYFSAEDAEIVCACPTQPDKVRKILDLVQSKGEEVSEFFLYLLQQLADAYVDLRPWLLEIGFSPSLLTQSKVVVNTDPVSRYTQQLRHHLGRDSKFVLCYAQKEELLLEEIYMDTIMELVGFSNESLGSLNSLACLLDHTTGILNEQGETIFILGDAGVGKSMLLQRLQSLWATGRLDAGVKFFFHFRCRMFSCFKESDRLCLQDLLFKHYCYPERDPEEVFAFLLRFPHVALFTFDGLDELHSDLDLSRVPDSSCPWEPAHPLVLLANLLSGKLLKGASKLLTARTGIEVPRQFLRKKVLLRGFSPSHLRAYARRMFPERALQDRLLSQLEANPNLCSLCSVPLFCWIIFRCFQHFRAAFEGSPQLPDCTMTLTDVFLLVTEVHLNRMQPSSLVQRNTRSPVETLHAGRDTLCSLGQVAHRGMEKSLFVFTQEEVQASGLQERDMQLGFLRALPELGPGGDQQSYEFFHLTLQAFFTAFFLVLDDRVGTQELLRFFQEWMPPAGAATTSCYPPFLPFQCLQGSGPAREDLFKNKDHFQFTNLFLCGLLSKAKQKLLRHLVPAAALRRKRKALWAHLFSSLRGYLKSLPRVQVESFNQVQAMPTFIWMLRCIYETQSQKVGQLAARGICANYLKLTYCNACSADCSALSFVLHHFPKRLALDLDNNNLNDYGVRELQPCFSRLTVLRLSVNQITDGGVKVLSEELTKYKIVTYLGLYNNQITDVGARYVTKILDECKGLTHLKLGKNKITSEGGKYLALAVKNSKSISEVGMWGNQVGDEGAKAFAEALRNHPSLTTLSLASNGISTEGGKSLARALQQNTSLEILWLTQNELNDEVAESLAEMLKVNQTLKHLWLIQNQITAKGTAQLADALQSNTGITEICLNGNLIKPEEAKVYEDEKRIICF

HEK293 [3] = assay: NOD1 signaling inhibitors, primary screen, cell-based, luminescence, uHTS (AID 1578); type: functional; settings: Homo sapiens
[4] = target: T3, Heat shock 70 kDa protein 1A (Homo sapiens, UniProt P0DMV8); assay: Hsp70 inhibitors, probe displacement, primary screen, biochemical, fluorescence polarization (AID 583)
T3 sequence (P0DMV8 whole entry): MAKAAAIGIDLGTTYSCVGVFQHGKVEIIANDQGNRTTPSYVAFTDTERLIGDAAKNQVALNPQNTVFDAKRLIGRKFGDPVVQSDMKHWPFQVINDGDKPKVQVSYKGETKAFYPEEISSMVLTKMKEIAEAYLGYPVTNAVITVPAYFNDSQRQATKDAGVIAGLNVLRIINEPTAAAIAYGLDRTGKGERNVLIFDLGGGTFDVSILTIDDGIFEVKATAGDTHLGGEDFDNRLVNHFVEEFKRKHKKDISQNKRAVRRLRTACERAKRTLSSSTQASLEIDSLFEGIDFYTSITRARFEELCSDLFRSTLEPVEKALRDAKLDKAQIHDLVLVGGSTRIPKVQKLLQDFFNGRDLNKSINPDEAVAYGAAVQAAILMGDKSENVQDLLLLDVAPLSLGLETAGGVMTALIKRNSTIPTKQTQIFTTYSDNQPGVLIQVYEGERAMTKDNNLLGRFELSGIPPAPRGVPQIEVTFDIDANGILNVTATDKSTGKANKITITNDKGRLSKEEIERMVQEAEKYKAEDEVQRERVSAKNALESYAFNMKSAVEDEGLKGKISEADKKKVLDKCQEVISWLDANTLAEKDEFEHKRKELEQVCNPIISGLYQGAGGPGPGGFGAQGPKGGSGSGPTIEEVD

[5] = C. albicans growth with fluconazole, confirmation, fluorescence, retest (AID 2467); type: functional, cell-based
HEK293 [6] = assay: cells; type: functional, cell-based; settings: Homo sapiens
[7] = target: T3, Heat shock 70 kDa protein 1A; assay: Hsp70 inhibitors, biochemical, TR-FRET (AID 786)
HEK293 [8] = assay: cells; type: functional, cell-based; settings: Homo sapiens; remark: listed apart in the source
[9] = NIH-3T3 fibroblast cytotoxicity, dose response, cytotoxicity control, cell-based, fluorescence, Alamar Blue, secondary assay (AID 2327); type: functional;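 note: NIH-3T3 mouse fibroblasts cultured with fluconazole at 8 µg/mL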
[10] = target: Nucleotide-binding oligomerization domain-containing protein 2 (Homo sapiens, UniProt Q9HC29); assay: NOD2 signaling inhibitors, cell-based, luminescence, uHTS, HEK293 (AID 1566); type: functional
Nucleotide-binding oligomerization domain-containing protein 2, sequence (Q9HC29 whole entry, the tested form may be a part): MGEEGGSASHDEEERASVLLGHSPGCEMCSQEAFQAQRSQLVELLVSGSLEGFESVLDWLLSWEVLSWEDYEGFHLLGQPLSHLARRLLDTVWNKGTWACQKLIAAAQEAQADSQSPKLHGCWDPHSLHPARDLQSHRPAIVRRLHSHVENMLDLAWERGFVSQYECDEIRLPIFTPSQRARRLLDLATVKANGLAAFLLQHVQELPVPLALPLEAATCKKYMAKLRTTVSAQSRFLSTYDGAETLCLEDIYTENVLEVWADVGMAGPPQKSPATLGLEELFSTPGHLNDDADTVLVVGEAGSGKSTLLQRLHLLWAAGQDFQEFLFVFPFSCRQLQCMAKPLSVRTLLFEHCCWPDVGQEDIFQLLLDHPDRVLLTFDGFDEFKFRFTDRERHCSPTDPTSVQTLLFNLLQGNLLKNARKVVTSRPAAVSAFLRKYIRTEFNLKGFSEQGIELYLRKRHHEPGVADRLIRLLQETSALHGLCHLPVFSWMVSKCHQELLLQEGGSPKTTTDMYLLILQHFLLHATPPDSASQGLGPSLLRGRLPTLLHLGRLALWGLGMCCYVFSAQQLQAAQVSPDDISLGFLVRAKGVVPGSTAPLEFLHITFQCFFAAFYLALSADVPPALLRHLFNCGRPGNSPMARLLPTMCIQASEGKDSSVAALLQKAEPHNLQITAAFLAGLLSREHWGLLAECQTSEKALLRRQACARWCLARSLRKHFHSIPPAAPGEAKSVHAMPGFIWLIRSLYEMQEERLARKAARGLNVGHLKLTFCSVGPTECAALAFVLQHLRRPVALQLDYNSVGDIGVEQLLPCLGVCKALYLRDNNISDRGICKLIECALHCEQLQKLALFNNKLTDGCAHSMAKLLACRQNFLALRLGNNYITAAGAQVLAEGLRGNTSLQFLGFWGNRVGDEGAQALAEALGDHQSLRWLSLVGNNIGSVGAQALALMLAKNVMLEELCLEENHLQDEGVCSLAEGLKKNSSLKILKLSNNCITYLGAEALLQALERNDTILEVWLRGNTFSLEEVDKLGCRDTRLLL

HEK293 [11] = assay: NOD2 signaling inhibitors in MDP-stimulated cells, cell-based, uHTS, luminescence (AID 2001); type: functional; settings: Homo sapiens
HEK293 [12] = assay: cells; type: functional, cell-based; settings: Homo sapiens; remark: listed apart in the source
HEK293 [13] = assay: cells; settings: Homo sapiens
[14] = target: T4, Neuropeptide Y receptor type 1 (Homo sapiens, UniProt P25929); assay: NPY-Y1 receptor antagonist potency, dose response, cell-based (AID 1277); type: functional
T4 sequence (P25929 whole entry): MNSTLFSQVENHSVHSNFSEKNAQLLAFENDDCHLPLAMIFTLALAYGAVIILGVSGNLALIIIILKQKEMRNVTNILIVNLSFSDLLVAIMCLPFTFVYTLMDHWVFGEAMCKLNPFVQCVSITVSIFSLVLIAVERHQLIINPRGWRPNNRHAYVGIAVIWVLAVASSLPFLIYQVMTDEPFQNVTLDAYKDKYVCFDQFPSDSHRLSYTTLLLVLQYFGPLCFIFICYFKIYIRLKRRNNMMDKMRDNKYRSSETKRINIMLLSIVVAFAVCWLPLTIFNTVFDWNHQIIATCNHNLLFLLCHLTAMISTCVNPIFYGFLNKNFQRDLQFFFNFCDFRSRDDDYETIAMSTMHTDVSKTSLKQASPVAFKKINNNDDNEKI

[15] = cytotoxicity toward NIH3T3 fibroblasts, dose response, counter-screen, cell-based, ATP luminescence, mouse fibroblasts (AID 2010); type: functional;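 note: cells exposed to compound for about 90 hours before reading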
[16] = target: T5, Neuropeptide Y receptor type 2 (Homo sapiens, UniProt P49146); assay: NPY-Y2 antagonist potency, selectivity check, dose response, counter-screen for NPY-Y1 antagonist project, cell-based (AID 1278); type: functional
T5 sequence (P49146 whole entry): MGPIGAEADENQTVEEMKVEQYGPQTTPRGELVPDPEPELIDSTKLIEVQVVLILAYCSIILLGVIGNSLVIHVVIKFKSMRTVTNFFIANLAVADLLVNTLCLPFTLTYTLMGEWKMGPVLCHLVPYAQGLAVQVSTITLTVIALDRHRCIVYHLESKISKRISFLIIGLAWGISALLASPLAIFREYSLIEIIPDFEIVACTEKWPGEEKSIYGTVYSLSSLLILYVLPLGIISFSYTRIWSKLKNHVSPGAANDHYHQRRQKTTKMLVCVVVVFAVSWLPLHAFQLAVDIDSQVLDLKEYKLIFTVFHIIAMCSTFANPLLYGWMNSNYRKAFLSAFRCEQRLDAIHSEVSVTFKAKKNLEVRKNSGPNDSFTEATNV

[17] = inhibitors of intracellular T. cruzi replication, confirmation, NIH3T3 host cells, beta-gal luminescence (AID 2044); type: functional, cell-based;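 note: intracellular parasites grown in NIH/3T3 mouse fibroblasts as host cells; luminescent beta-galactosidase reporter signal from transgenic T. cruzi replicating inside host cells; inhibitors lower the luminescence signal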
[18] = target: T6, Calpain-2 catalytic subunit (Sus scrofa, UniProt P43367); assay: pig calpain II inhibitor potency, dose response, biochemical, fluorogenic peptide substrate (AID 1420); type: functional
T6 sequence (P43367 whole entry): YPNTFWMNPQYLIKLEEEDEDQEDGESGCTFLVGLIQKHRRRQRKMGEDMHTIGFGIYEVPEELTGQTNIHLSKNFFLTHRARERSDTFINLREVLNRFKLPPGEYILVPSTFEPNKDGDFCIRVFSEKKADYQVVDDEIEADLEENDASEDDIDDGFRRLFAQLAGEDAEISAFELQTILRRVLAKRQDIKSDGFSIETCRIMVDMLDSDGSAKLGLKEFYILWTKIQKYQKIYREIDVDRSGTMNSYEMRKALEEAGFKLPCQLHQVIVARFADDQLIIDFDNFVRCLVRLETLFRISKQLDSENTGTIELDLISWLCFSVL

[19] = inhibitors of Bluetongue virus cytopathic effect, confirmation, arbovirus, BSR cells (AID 1250); type: functional;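 note: protection from viral cytopathic effect measured as cell viability by ATP luminescence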
[20] = Counterscreen for AddAB inhibitors: absorbance-based bacterial cell-based high throughput dose response assay for inhibitors of bacterial viability. [Related pubchem assays (depositor defined):AID435030, AID449728, AID449731, AID488942, AID488955, AID488956]; type: functional
Exodeoxyribonuclease V = Exodeoxyribonuclease V (Escherichia coli (strain K12), UniProt P04993+P07648+P08394); assay: E. coli RecBCD inhibitors, dose response, counter-screen for AddAB inhibitor project, absorbance, V66 E. coli, mutant T4 phage (AID 492957); type: functional, cell-based, Escherichia coli str. K-12 substr. MG1655
[21] = Luminescence-based counterscreen assay for KLF5 inhibitors: dose response cell-based high throughput screening assay to identify cytotoxic compounds using the IEC-6 intestinal epithelial cell line. [Related pubchem assays: 1700 (Primary screen.), 1834 (Confirmation screen.), 1858 (Summary AID.), 1905 (Counterscreen.)]; type: functional
INS1 = assay: beta cell apoptosis inhibitors, cytokine rescue, dose response, luminescence, retest (AID 449756); type: functional, cell-based; settings: Rattus norvegicus;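 note: cell death triggered by IL-1 beta plus TNF-alpha plus IFN-gamma mixture; protective hits raise ATP signal compared with cytokine alone wells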
[22] = HepG2 cell cytotoxicity, dose response, cytotoxicity control, ATP luminescence, cherry-pick, activator set 2 (AID 1053143); type: functional, cell-based
Nonstructural protein 1 = Nonstructural protein 1 (Influenza A virus, UniProt Q194T2); type: functional, Influenza A virus (A/California/07/2009(H1N1))
Nonstructural protein 1, sequence (Q194T2 whole entry): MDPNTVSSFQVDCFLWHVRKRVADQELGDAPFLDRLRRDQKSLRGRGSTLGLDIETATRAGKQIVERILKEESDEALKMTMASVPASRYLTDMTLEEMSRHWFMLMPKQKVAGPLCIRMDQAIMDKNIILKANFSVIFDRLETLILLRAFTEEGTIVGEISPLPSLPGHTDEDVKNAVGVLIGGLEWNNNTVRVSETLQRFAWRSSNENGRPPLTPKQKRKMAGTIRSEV

Mucolipin-3, sequence (Q8TDD5 whole entry): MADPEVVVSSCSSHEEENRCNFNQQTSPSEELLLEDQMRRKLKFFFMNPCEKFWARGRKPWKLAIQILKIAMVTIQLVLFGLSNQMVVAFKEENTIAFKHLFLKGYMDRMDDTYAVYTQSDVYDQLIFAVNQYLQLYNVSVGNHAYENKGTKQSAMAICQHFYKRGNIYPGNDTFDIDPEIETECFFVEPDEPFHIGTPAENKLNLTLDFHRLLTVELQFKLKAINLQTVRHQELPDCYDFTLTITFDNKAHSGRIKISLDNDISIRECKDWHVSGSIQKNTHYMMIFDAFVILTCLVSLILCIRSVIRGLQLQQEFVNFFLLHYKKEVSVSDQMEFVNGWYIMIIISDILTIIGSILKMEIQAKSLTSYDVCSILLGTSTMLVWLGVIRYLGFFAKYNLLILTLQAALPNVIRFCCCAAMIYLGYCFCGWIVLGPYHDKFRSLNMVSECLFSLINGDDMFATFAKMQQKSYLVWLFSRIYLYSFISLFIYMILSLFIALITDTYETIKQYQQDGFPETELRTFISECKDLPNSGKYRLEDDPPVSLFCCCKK

## O=C(Nc1c(S(=O)(=O)c2ccc(Cl)cc2)csc1Br)c1ccccc1Cl
Mucolipin-3
  EC50: > 3.32 µM (active)
Ion channel NompC
  EC50: > 29.9 µM (not active)
[1]
  EC50: > 260 µM (inactive)

## O=[N+]([O-])c1ccc(Cl)c(/C=C/c2cc(C(F)(F)F)nc(O)n2)c1
Tumor necrosis factor
  IC50: 10.3 µM (active)
[2]
  IC50: 4.4 µM (active)
HEK293 [3]
  EC50: 6.85 µM (active)
[4]
  IC50: 46.4 µM (active)
[5]
  EC50: 1.8 µM (active)
HEK293 [6]
  IC50: > 20 µM (inactive)
[7]
  IC50: > 100 µM (not active)
HEK293 [8]
  IC50: 10.2 µM (active)
[9]
  EC50: > 150 µM (inactive)
[10]
  EC50: > 20 µM (inactive)
HEK293 [11]
  IC50: 11.8 µM (inactive)
HEK293 [12]
  IC50: > 20 µM (inactive)
HEK293 [13]
  IC50: > 20 µM (inactive)

## COc1ccc(N(C)S(=O)(=O)c2cccc(C(=O)NCC3CCCCC3)c2)cc1
[14]
  IC50: > 35 µM (not active)
[15]
  EC50: > 30 µM (not active)
[16]
  IC50: > 35 µM (not active)
[17]
  EC50: > 30 µM (not active)
[18]
  IC50: 14.1 µM (not active)

## COc1cccc(-c2nc(SCC(=O)Nc3nc(-c4ccccc4)c(C)s3)nc(O)c2C#N)c1
[19]
  IC50: 23.4 µM (active)

## Oc1cccc(/C=N/Nc2ccc(Cl)nn2)c1O
[20]
  IC50: > 119 µM (inactive)
Exodeoxyribonuclease V
  IC50: > 119 µM (inactive)
[21]
  IC50: 7.91 µM (active)
INS1
  AC50: 1.76 µM (active)
HEK293 [3]
  EC50: > 20 µM (inactive)
HEK293 [6]
  IC50: > 20 µM (inactive)
[22]
  AC50: 20.4 µM (active)
HEK293 [8]
  IC50: 17.5 µM (active)
[10]
  EC50: > 20 µM (inactive)
HEK293 [11]
  IC50: > 20 µM (inactive)
HEK293 [12]
  IC50: > 20 µM (inactive)
Nonstructural protein 1
  IC50: 2.23 µM (active)
